Where two headings read alike, the source gives them in different places.
Tests used:
Pseudomonas aeruginosa = test: % Kill of Pseudomonas aeruginosa; format: cell-based; conditions: read-out: Percent Kill Pseudomonas aeruginosa; for killing at 0.23 µg/mL: 0.23 ppm free bromine; for killing at 0.34 µg/mL: 0.34 ppm free bromine; for killing at 0.2 µg/mL: 0.20 ppm free bromine; for killing at 0.25 µg/mL: 0.25 ppm free bromine
Description: Quaternary ammonium polyhalides and surfactant mixtures thereof have biocidal properties in aqueous systems where oxidizing biocides are compatible; that is, in aqueous systems having a low halogen demand.
The data in Tables 3-5 indicate that the combination of a water soluble liquid quaternary ammonium polyhalide and a surfactant provides an enhanced efficacy over the liquid quaternary ammonium polyhalide alone. This may be a result of the surface active effect on exopolysaccharides and/or biological membranes.

[1] = Japanese Patent Publication No. 49/14,411; cited from earlier work
[2] = Japanese Patent Publication No. 49/14,411; cited from earlier work; remark: listed apart in the source

Work on `CCCCCCCC[N+](C)(C)CCCCCCCC` [Compound 2, N-N-Dimethyl-N,N-dioctylammonium dibromochloride] yielded a killing at 0.23 µg/mL (Pseudomonas aeruginosa; 1 min, 1 min) of 82%, a killing at 0.23 µg/mL (Pseudomonas aeruginosa; 0.05 h, 3 min) of 100% and a killing at 0.23 µg/mL (Pseudomonas aeruginosa; 5 min, 5 min) of 100%. The killing at 0.23 µg/mL (Pseudomonas aeruginosa; 10 min, 10 min) was 100%.

`COCCOCC[N+](C)(CCOCCOC)CCOCCOC` [Compound 3, N-Methyl-N,N,N-tris(3,6-dioxaheptyl)ammonium diobromoiodide] showed a killing at 0.34 µg/mL (Pseudomonas aeruginosa; 1 min, 1 min) of 98.6%, a killing at 0.34 µg/mL (Pseudomonas aeruginosa; 0.05 h, 3 min) of 100% and a killing at 0.34 µg/mL (Pseudomonas aeruginosa; 5 min, 5 min) of 100%. For the same compound, the killing at 0.34 µg/mL (Pseudomonas aeruginosa; 10 min, 10 min) was 100%.

`CCCCCCCCN(C)C` [Compound 4, N,N-Dimethyl-N-octylamine hydrotribromide] showed a killing at 0.34 µg/mL (Pseudomonas aeruginosa; 1 min, 1 min) of 99.9%, a killing at 0.34 µg/mL (Pseudomonas aeruginosa; 0.05 h, 3 min) of 100% and a killing at 0.34 µg/mL (Pseudomonas aeruginosa; 5 min, 5 min) of 100%. For the same compound, the killing at 0.34 µg/mL (Pseudomonas aeruginosa; 10 min, 10 min) was 100%.

Compound `CC[N+](C)(C)C` [Compound 5, N-Ethyl-N,N,N-trimethylammonium tribromide] has a killing at 0.34 µg/mL (Pseudomonas aeruginosa; 1 min, 1 min) of 99.9%, a killing at 0.34 µg/mL (Pseudomonas aeruginosa; 0.05 h, 3 min) of 100% and a killing at 0.34 µg/mL (Pseudomonas aeruginosa; 5 min, 5 min) of 100%. For the same compound, the killing at 0.34 µg/mL (Pseudomonas aeruginosa; 10 min, 10 min) was 100%.

`CCC[N+](C)(C)CC` [Compound 6, N,N-Dimethyl-N-ethyl-N-propylammonium pentabromide] showed a killing at 0.34 µg/mL (Pseudomonas aeruginosa; 1 min, 1 min) of 99.6%, a killing at 0.34 µg/mL (Pseudomonas aeruginosa; 0.05 h, 3 min) of 100% and a killing at 0.34 µg/mL (Pseudomonas aeruginosa; 5 min, 5 min) of 100%. For the same compound, the killing at 0.34 µg/mL (Pseudomonas aeruginosa; 10 min, 10 min) was 100%.

For `C[N+](C)(C)CCO` [Compound 7, N-(2-Hydroxyethyl)-N,N,N-trimethylammonium tribromide], the killing at 0.2 µg/mL (Pseudomonas aeruginosa; 1 min, 1 min) was 56.6%, the killing at 0.2 µg/mL (Pseudomonas aeruginosa; 0.05 h, 3 min) was 99.6% and the killing at 0.2 µg/mL (Pseudomonas aeruginosa; 5 min, 5 min) was 100%. For the same compound, the killing at 0.2 µg/mL (Pseudomonas aeruginosa; 10 min, 10 min) was 100%.

`COCCOCCN(CCOCCOC)CCOCCOC` [Compound 8, N,N,.N-tris(3,6-Dioxaheptyl)amine hydrotribromide] showed a killing at 0.23 µg/mL (Pseudomonas aeruginosa; 1 min, 1 min) of 99.9%, a killing at 0.23 µg/mL (Pseudomonas aeruginosa; 0.05 h, 3 min) of 100% and a killing at 0.23 µg/mL (Pseudomonas aeruginosa; 5 min, 5 min) of 100%. It also gave a killing at 0.23 µg/mL (Pseudomonas aeruginosa; 10 min, 10 min) of 100%.

`CCC[N+](CCOCCOC)(CCOCCOC)CCOCCOC` [Compound 9, N-Propyl-N,N,N-tris(3,6-dioxaheptyl)-ammonium tribromide] showed a killing at 0.23 µg/mL (Pseudomonas aeruginosa; 1 min, 1 min) of 21.5%, a killing at 0.23 µg/mL (Pseudomonas aeruginosa; 0.05 h, 3 min) of 82% and a killing at 0.23 µg/mL (Pseudomonas aeruginosa; 5 min, 5 min) of 100%. The killing at 0.23 µg/mL (Pseudomonas aeruginosa; 10 min, 10 min) was 100%.

In the case of `CCCCCCCCCCCCCC[N+](C)(C)Cc1ccccc1` [Compound 11, N-Benzyl-N,N-dimethyl-N-myristyl-ammonium dibromochloride], the killing at 0.34 µg/mL (Pseudomonas aeruginosa; 1 min, 1 min) is reported as 100%, the killing at 0.34 µg/mL (Pseudomonas aeruginosa; 0.05 h, 3 min) is reported as 100% and the killing at 0.34 µg/mL (Pseudomonas aeruginosa; 5 min, 5 min) is reported as 100%. It also gave a killing at 0.34 µg/mL (Pseudomonas aeruginosa; 10 min, 10 min) of 100%.

`CCOCC[N+](C)(C)C` [Compound 12, N-Ethoxyethyl-N,N,N-trimethylammonium tribromide] gave a killing at 0.34 µg/mL (Pseudomonas aeruginosa; 1 min, 1 min) of 100%, a killing at 0.34 µg/mL (Pseudomonas aeruginosa; 0.05 h, 3 min) of 100% and a killing at 0.34 µg/mL (Pseudomonas aeruginosa; 5 min, 5 min) of 99.9%. The killing at 0.34 µg/mL (Pseudomonas aeruginosa; 10 min, 10 min) was 100%.

`CCC[N+](C)(C)CC` [Compound 13, N,N-Dimethyl-N-ethyl-N-propylammonium dichlorobromide] gave a killing at 0.25 µg/mL (Pseudomonas aeruginosa; 1 min, 1 min) of 100%, a killing at 0.25 µg/mL (Pseudomonas aeruginosa; 0.05 h, 3 min) of 100% and a killing at 0.25 µg/mL (Pseudomonas aeruginosa; 5 min, 5 min) of 100%. The killing at 0.25 µg/mL (Pseudomonas aeruginosa; 10 min, 10 min) was 100%.

Work on `CC[N+](C)(C)C` [Compound 14, N-Ethyl-N,N,N-tri-methylammonium dichlorobromide] yielded a killing at 0.2 µg/mL (Pseudomonas aeruginosa; 1 min, 1 min) of 100%, a killing at 0.2 µg/mL (Pseudomonas aeruginosa; 0.05 h, 3 min) of 100% and a killing at 0.2 µg/mL (Pseudomonas aeruginosa; 5 min, 5 min) of 100%. The killing at 0.2 µg/mL (Pseudomonas aeruginosa; 10 min, 10 min) was 100%.

`CCCCCCCCCC[N+](C)(C)CCCCCCCCCC` [Compound 15, N,N-Didecyl-N,N-dimethyl-ammonium dibromochloride] showed a killing at 0.3 µg/mL (Pseudomonas aeruginosa; 1 min) of 100%, a killing at 0.3 µg/mL (Pseudomonas aeruginosa; 0.05 h) of 100% and a killing at 0.3 µg/mL (Pseudomonas aeruginosa; 5 min) of 100%. For the same compound, the killing at 0.3 µg/mL (Pseudomonas aeruginosa; 10 min) was 100%.

For `CCCCCCCCCCCCCCCC[n+]1ccccc1` [cetylpyridinium tribromide], the water solubility [1] is given as “water insoluble” and the biocidal properties [2] is given as “having biocidal properties”.

For `CCCCCCCCCCCCCCCC[N+](C)(C)C.[Br-]` [cetyltrimethylammonium bromide], the biocidal properties [2] is listed as “having biocidal properties”.

In the case of `CCCCCCCCCCCCCCCC[N+](C)(C)C` [cetyltrimethylammonium tribromide], the water solubility [1] is given as “water insoluble” and the biocidal properties [2] is given as “having biocidal properties”.
